Results published in patent US9358247B2, “Methods and compositions for promoting activity of anti-cancer therapies” (Oncology Research International Limited, priority 2006, dated 2016).
Read-outs that look alike come from different tables or passages of the source.

What was measured:
A549 cell line = assay: Cancer cell growth inhibition, SRB dye assay (single agents and 50:50 IC50 mixtures); assay type: cell-based, human
Experimental: (§1) Cancer cells were seeded the day before application of drug in triplicate or quadruplicate in 96-well plates, allowed to grow in the presence of drug for 6 days before cell growth relative to untreated control wells was determined with a dye assay.
(§2) Cells were seeded in triplicate or quadruplicate at 3-4,000 per microtitre well in 90 μl of RPMI culture medium/10% foetal calf serum/penicillin, streptomycin mix, treated with 10 μl of drug (prepared in a dilution plate at 10× concentration required), and allowed to grow until the controls were nearly confluent (6 days).
(§3) SRB: Plates were washed with PBS, fixed with methylated spirits, washed with tap water and stained with 50 μL/well of SRB solution (sulforhodamine, 0.4% in 1% acetic acid), followed by washing with tap water and 1% acetic acid, solubilisation in Tris and absorbance read at 564 nm in an ELISA reader.
(§4) Data was collected using ELISA plate reader software—SOFTmax PRO3.1.2, then imported into EXCEL. The mean and SD of replicates were calculated as a % of control, after subtraction of the blank value (wells with no cells). A graph was plotted of % control vs dose of agent and IC50 (half maximal inhibitory concentration) values determined.
(§5) Tumour cells were seeded in duplicate in 96-well plates at 2-5,000 per microtitre well containing RPMI culture medium/10% foetal calf serum. The cells were allowed to grow until the controls were nearly confluent after 5-6 days. Plates were then washed with PBS, fixed in ethanol and stained with 50 μL/well of SRB solution (sulforhodamine, 0.4% in 1% acetic acid), followed by washing with 1% acetic acid and solubilisation in Tris. The absorbance was read at 564 nm using an ELISA reader.
(§6) The IC50, or concentration required to inhibit cell growth by 50%, was determined from the percentage inhibition versus concentration data using the probit calculation methods of Finney (Finney D J (1971). Probit Analysis. 3rd Edition. Cambridge University Press).
(§7) The inhibitory data from each mixture was used to determine an IC50 of IC50 value, where the concentrations used were the Multiplying Factor values. In order to determine the actual IC50 contribution of each component in the two-component mixture, the IC50 of IC50 value was multiplied by the IC50 of the individual component. This can then be used to determine the reduction in IC50 contribution (ie, reduction in dose) of the chemotherapeutic agent due to the presence of the steroid saponin in the mixture. A simpler way of determining the reduction in dose is to use the following simple formula: […]

LNCap cell line = assay: as above; assay type: cell-based, human; conditions: for Vincristine Dose Reduction: 50:50 IC50 mixture vs vincristine alone, Example 3
Experimental: (§8) Cancer cells were seeded the day before application of drug in triplicate or quadruplicate in 96-well plates, allowed to grow in the presence of drug for 6 days before cell growth relative to untreated control wells was determined with a dye assay. Cells were seeded in triplicate or quadruplicate at 3-4,000 per microtitre well in 90 μl of RPMI culture medium/10% foetal calf serum/penicillin, streptomycin mix, treated with 10 μl of drug (prepared in a dilution plate at 10× concentration required), and allowed to grow until the controls were nearly confluent (6 days). SRB: Plates were washed with PBS, fixed with methylated spirits, washed with tap water and stained with 50 μL/well of SRB solution (sulforhodamine, 0.4% in 1% acetic acid), followed by washing with tap water and 1% acetic acid, solubilisation in Tris and absorbance read at 564 nm in an ELISA reader. Data was collected using ELISA plate reader software—SOFTmax PRO3.1.2, then imported into EXCEL. The mean and SD of replicates were calculated as a % of control, after subtraction of the blank value (wells with no cells). A graph was plotted of % control vs dose of agent and IC50 (half maximal inhibitory concentration) values determined. […] The cells were allowed to grow until the controls were nearly confluent after 5-6 days. Plates were then washed with PBS, fixed in ethanol and stained with 50 μL/well of SRB solution (sulforhodamine, 0.4% in 1% acetic acid), followed by washing with 1% acetic acid and solubilisation in Tris. The absorbance was read at 564 nm using an ELISA reader. […] Cambridge University Press). […] The inhibitory data from each mixture was used to determine an IC50 of IC50 value, where the concentrations used were the Multiplying Factor values. In order to determine the actual IC50 contribution of each component in the two-component mixture, the IC50 of IC50 value was multiplied by the IC50 of the individual component. This can then be used to determine the reduction in IC50 contribution (ie, reduction in dose) of the chemotherapeutic agent due to the presence of the steroid saponin in the mixture. A simpler way of determining the reduction in dose is to use the following simple formula: […]

MCF7 cell line = assay: as above; assay type: cell-based, human; conditions: for Vincristine Dose Reduction: 50:50 IC50 mixture vs vincristine alone, Example 3
Experimental: as §8

K562 cell line = assay: as above; assay type: cell-based, human
Experimental: as §1, §2, §3, §4, §5, §6, §7
The cell seeding and ELISA plate methodology of Example 2 were used for determining inhibition of the K562 cell line.

[1] = tested on: PC3, DU145, A549 and HT29 cell lines; assay: Cancer cell growth inhibition, IC50 values used in assay for four cell lines (Example 5); assay type: cell-based, human; conditions: value used to make up 50:50 IC50 mixtures
Experimental: as §5, §6
The cell seeding and ELISA plate methodology of Example 2 were used for determining inhibition of four cancer cell lines. IC50 values were determined for the steroid saponins dioscin, deltonin and prosapogenin A, and their mixtures with cisplatin, docetaxel, doxorubicin and vincristine, using PC3, DU145, A549 and HT29 cell lines.

DU145 cell line = assay: Cancer cell growth inhibition, SRB dye assay (single agents and 50:50 IC50 mixtures); assay type: cell-based, human; conditions: single agent, Example 2
Experimental: as §1, §2, §3, §4, §5, §6, §7

HT29 cell line = assay: as above; assay type: cell-based, human; conditions: single agent, Example 2
Experimental: as §1, §2, §3, §4, §5, §6, §7

PC3 cell line = assay: as above; assay type: cell-based, human; conditions: single agent, Example 2
Experimental: as §1, §2, §3, §4, §5, §6, §7

HT29 human cells = assay: In vivo tumour volume, HT29 cells subcutaneously introduced into mice, 5-fluorouracil and deltonin; parameters: species or system Balb/c nude female mice; conditions: 5-Fluorouracil 37.5 mg/kg 1 × weekly
Source text: 5-Fluorouracil (5FU) is the principal chemotherapeutic drug used in treating colon cancer; it is most commonly co-administered with other chemotherapeutic agents. This study compared the co-administration of 5-fluoruracil and deltonin, with administration of mono-administration of both 5-fluorourcil and deltonin.
72 female Balb/c nude female mice were microchipped, weighed and randomised based on body weight into 8 groups with 9 mice per group. […]
HT29 human […] carcinoma cells were cultured in RPMI1640 cell culture medium, which was supplemented with 10% FBS and penicillin-streptomycin (50 IU/mL final concentration). The cells were harvested by trypsinisation, washed twice in HBSS and counted. The cells were then resuspended in HBSS and adjusted to a final volume containing 2×10^7 cells/mL. For inoculation, the needle was introduced through the skin into the subcutaneous space just below the right shoulder, where 100 μL of cells (2×10^6) were discharged.
When the tumour volumes had reached an average of greater than 200 mm^3, treatment was started (Day 0). Tumour volumes were measured 3-times weekly, and determined according to the formula: V(mm^3)=length×diameter^2×π/6
Treatment was continued for 17 days. The mean tumour volumes for each dosage regime are given in Table 24 and are presented graphically in FIG. 1: […]

[2] = Homo sapiens, 144 h, Example 4, value used to make up 50:50 IC50 mixtures, read-out: IC50 values used in assay
[3] = Homo sapiens, 144 h, Example 3, value used to make up 50:50 IC50 mixtures, read-out: IC50 values used in assay
[4] = Homo sapiens, 144 h, single agent, Example 2, read-out: IC50
[5] = Example 4, value used to make up 50:50 IC50 mixtures, read-out: IC50 values used in assay
[6] = Example 3, value used to make up 50:50 IC50 mixtures, read-out: IC50 values used in assay
[7] = single agent, Example 2, read-out: IC50

| SMILES | IC50 (LNCap cell line; [3]) [nM] | IC50 (MCF7 cell line; [3]) [nM] | IC50 ([1]; Homo sapiens) [nM] | IC50 (A549 cell line; [4]) [nM] | IC50 (DU145 cell line; Homo sapiens, DU-145, 144 h) [nM] | IC50 (HT29 cell line; Homo sapiens, HT-29, 144 h) [nM] | IC50 (PC3 cell line; Homo sapiens, PC-3, 144 h) [nM] | IC50 (LNCap cell line; [4]) [nM] | IC50 (MCF7 cell line; [4]) [nM] | IC50 (K562 cell line; [4]) [nM] | also measured |
| --- | --- | --- | --- | --- | --- | --- | --- | --- | --- | --- | --- |
| C[C@@H]1CC[C@@]2(OC1)O[C@H]1C[C@H]3[C@@H]4CC=C5C[C@@H](O[C@@H]6O[C@H](CO)[C@@H](O[C@@H]7O[C@@H](C)[C@H](O)[C@@H](O)[C@H]7O)[C@H](O)[C@H]6O[C@@H]6O[C@@H](C)[C@H](O)[C@@H](O)[C@H]6O)CC[C@]5(C)[C@H]4CC[C@]3(C)[C@H]1[C@@H]2C [Dioscin, diosgenin Rha2, [Rha4], Glc] | 1000 | 1000 | 1000 | – | – | – | – | – | – | – | IC50 (A549 cell line; [2]): 1000 nM; Vincristine Dose Reduction (LNCap cell line): consistent reduction in dosage; Vincristine Dose Reduction (MCF7 cell line): consistent reduction in dosage; IC50 (K562 cell line; Homo sapiens, 144 h, Example 6, value used to make up 50:50 IC50 mixtures, read-out: IC50 values used in assay): 1000 nM |
| CC(=O)O[C@H]1C(=O)[C@@]2(C)[C@H]([C@H](OC(=O)c3ccccc3)[C@]3(O)C[C@H](OC(=O)[C@H](O)[C@@H](NC(=O)c4ccccc4)c4ccccc4)C(C)=C1C3(C)C)[C@]1(OC(C)=O)CO[C@@H]1C[C@@H]2O [Paclitaxel] | – | – | – | 3.2 | 2.7 | > 3.3 | 2.1 | 1.2 | 1.1 | > 3.3 | IC50 (A549 cell line; [2]): 3 nM; IC50 (MCF7 cell line; [2]): 1 nM |
| C[C@@H]1CC[C@@]2(OC1)O[C@H]1C[C@H]3[C@@H]4CC=C5C[C@@H](O[C@@H]6O[C@H](CO)[C@@H](O)[C@H](O)[C@H]6O[C@@H]6O[C@@H](C)[C@H](O)[C@@H](O)[C@H]6O)CC[C@]5(C)[C@H]4CC[C@]3(C)[C@H]1[C@@H]2C [Prosapogenin A, diosgenin Rha2, Glc] | – | – | – | – | – | – | – | – | – | – | IC50 (A549 cell line; [5]): 2000 nM; Vincristine Dose Reduction (LNCap cell line): effectively zero reduction; IC50 (LNCap cell line; [6]): 2000 nM; Vincristine Dose Reduction (MCF7 cell line): effectively zero reduction; IC50 (MCF7 cell line; [6]): 2000 nM; IC50 (MCF7 cell line; [5]): 2000 nM; IC50 (K562 cell line; Example 6, value used to make up 50:50 IC50 mixtures, read-out: IC50 values used in assay): 2000 nM; IC50 [1]: 2000 nM |
| N.N.[Cl][Pt][Cl] [Cisplatin] | – | – | – | – | – | – | – | – | – | – | IC50 (A549 cell line; [7]): 1200 nM; IC50 (DU145 cell line): 540 nM; IC50 (HT29 cell line): 930 nM; IC50 (PC3 cell line): 1400 nM; IC50 (LNCap cell line; [6]): 800 nM; IC50 (LNCap cell line; [7]): 700 nM; IC50 (MCF7 cell line; [6]): 800 nM; IC50 (MCF7 cell line; [7]): 650 nM; IC50 (K562 cell line; [7]): 820 nM; IC50 [1]: 800 nM |
| CC[C@]1(O)C[C@H]2CN(CCc3c([nH]c4ccccc34)[C@@](C(=O)OC)(c3cc4c(cc3OC)N(C=O)[C@H]3[C@@](O)(C(=O)OC)[C@H](OC(C)=O)[C@]5(CC)C=CCN6CC[C@]43[C@@H]65)C2)C1 [Vincristine] | 0.5 | 0.5 | 2.5 | 6 | 2.9 | 2.4 | 1.1 | 0.49 | 0.49 | 0.21 | – |
| COc1cccc2c1C(=O)c1c(O)c3c(c(O)c1C2=O)C[C@@](O)(C(=O)CO)C[C@@H]3O[C@H]1C[C@H](N)[C@H](O)[C@H](C)O1 [Doxorubicin] | 4 | 15 | 15 | 16 | 11 | 28 | 22 | 3.9 | 14 | 8.5 | – |
| CC(=O)O[C@@]12CO[C@@H]1C[C@H](O)[C@@]1(C)C(=O)[C@H](O)C3=C(C)[C@@H](OC(=O)[C@H](O)[C@@H](NC(=O)OC(C)(C)C)c4ccccc4)C[C@@](O)([C@@H](OC(=O)c4ccccc4)[C@H]21)C3(C)C [Docetaxel] | 0.03 | 0.03 | 0.2 | 0.27 | 0.15 | 0.51 | 0.09 | 0.026 | 0.039 | 0.42 | – |
| O=c1[nH]cc(F)c(=O)[nH]1 [5-Fluorouracil (5FU), 5-Fluorouracil] | – | – | – | – | – | – | – | – | – | – | Mean tumour volume (HT29 human cells; Day 0): 236 mm^3; Mean tumour volume (HT29 human cells; Day 2): 280 mm^3; Mean tumour volume (HT29 human cells; Day 4): 307 mm^3; Mean tumour volume (HT29 human cells; Day 7): 330 mm^3; Mean tumour volume (HT29 human cells; Day 9): 432 mm^3; Mean tumour volume (HT29 human cells; Day 11): 511 mm^3; Mean tumour volume (HT29 human cells; Day 14): 681 mm^3; Mean tumour volume (HT29 human cells; Day 16): 676 mm^3; Mean tumour volume (HT29 human cells; Day 18): 824 mm^3 |
